Laboratory results: Sander's compilation of Henry's law constants (doi:10.1021/es00047a026)

Assay: Henry solubility constant Hcp at 298.15 K (mol/(m3 Pa))
Details: reference: Hoff et al. (1993)

| SMILES | Henry solubility constant Hcp |
| --- | --- |
| CC(Cl)(Cl)Cl [1,1,1-trichloroethane] | 0.00053 |
| Clc1cccc(Cl)c1 [1,3-dichlorobenzene] | 0.0034 |
| c1ccccc1 [benzene] | 0.0017 |
| Clc1ccccc1 [chlorobenzene] | 0.0026 |
| ClCCl [dichloromethane] | 0.0041 |
| Cc1ccccc1 [methylbenzene] | 0.0013 |
| CC(C)=O [propanone] | 0.27 |
| ClC(Cl)=C(Cl)Cl [tetrachloroethene] | 0.00063 |
| ClC(Cl)(Cl)Cl [tetrachloromethane] | 0.00036 |
| ClC=C(Cl)Cl [trichloroethene] | 0.0011 |
